From patent US20090328246A1, “USE OF THE ocp3 MUTATION TO REGULATE DROUGHT RESISTANCE IN PLANTS” (Calantia Biotech, S.L., priority 2006, published 2009)

Assays:
Format in all cases: in vivo, Arabidopsis thaliana
[1] = test system: rd29A, rd29B and rd22 water stress marker genes; assay: RT-PCR expression of rd29A, rd29B and rd22 water stress marker genes after exogenous ABA application
From the text: A possibility that would explain the greater sensitivity to ABA of the ocp3 mutant as well as the increase in drought resistance could be that the mutation in said gene had caused a constitutive activation of the ABA-dependent signaling pathway and the final result of which would be the constitutive expression of dehydration-responsive genes which increase the protection levels against the damage caused by water stress and therefore this would aid the plants in better resisting this type of stress. For the purpose of studying this possibility, a molecular analysis was conducted, determining the expression levels (measured as accumulation of the corresponding mRNA by RT-PCR) of several signaling marker genes in response to dehydration, both of those genes activated by the ABA-dependent route, and of those genes the activation of which is independent of the ABA route. The rd29B and rd22 genes were used as markers of the ABA-dependent pathway, whereas rd29A was used for the ABA-independent pathway. The levels of the transcripts of these genes at different times (0, 1 h, 3 h and 6 h) were analyzed after incubating the plants in a liquid medium with 150 μM ABA.
FIG. 3. Analysis of the expression by RT-PCR of rd29A, rd29B and rd22 water stress marker genes in Col-0 and ocp3 plants, using the ELF1α gene as a control. The plants were grown in MS-Agar plates for 3 weeks and the RNAs were extracted from samples collected at different times. (A) Expression levels after exogenous 150 μM ABA application in a liquid culture. (B) Expression levels 10 minutes, 30 minutes and 1, 3 and 6 hours after subjecting the plants to dehydration.
FIG. 9. Comparison of the induction by ABA of the expression of rd29A, rd29B and rd22 water stress marker genes assayed by RT-PCR in RNA samples from Col-0, ocp3, aba2-1, abi1-1 and ocp3abi1-1 plants, and using the accumulation of the mRNA corresponding to the ELF1α gene as a control. The procedure was the same as that described for FIG. 3. […]
The semi-quantitative RT-PCR technique was used to determine the relative amounts of some mRNAs of interest. […]

[2] = test system: stomata of ocp3 and wt plants; assay: Measurement of the stomatal closure induced by ABA in epidermal peelings of rosette leaves; conditions: 100 μM ABA
From the text: There are different stimuli modifying the rate as well as the degree of opening/closure of the stomata and, among them, subjecting the plants to drought or depriving them of light should be emphasized, and both signalings are always directly related to an increase in the endogenous levels of ABA, a hormone determining the closure of stomata under inductive or stress conditions. To determine if there is any defect in ABA-mediated signaling in the ocp3 mutant, the decision was made to compare the stomatal closure rate between ocp3 plants and Col-0 plants, occurring after direct ABA application in epidermal samples (peelings) obtained from rosette leaves. […] Therefore, it is inferred from these experiments that the ocp3 mutant is more sensitive to the ABA hormone and this translates into an early response to this hormone which is manifested with an accelerated stomatal closure. The greater susceptibility to ABA is consistent with the hypersusceptibility shown by the seedlings when they are germinated and grown in the presence of ABA (FIG. 2). Furthermore, said hypersusceptibility to ABA could explain the drought resistance phenotype, since drought causes increases in ABA synthesis which in turn lead to the closure of stomata to prevent the loss of water by evapotranspiration. Thus, since the ocp3 mutant is more sensitive to ABA, it would accelerate the closure of its stomata with a drought signal and this promptness in the response could provide it with an advantage to resist the metabolic drawbacks derived from water privation better or for more time.
FIG. 7. Measurement of the stomatal closure induced by ABA (100 μM) in ocp3 and wt plants. Rosette leaves were detached from 6 week-old plants of the ocp3 and Col-0 genotypes and incubated in a solution (10 mM Mes-KOH pH 6.15 and 30 mM KCl) for 2 hours to induce the opening of the stomata. Then, 100 μM ABA was added to induce the closure of the stomata. The opening of the ostiole was measured at the different times indicated in epidermal peelings of the leaves with the different genetic backgrounds. […]

OCP3 gene = assay: Real-time PCR relative expression of OCP3 after exogenous ABA application; conditions: 150 μM ABA; wt plants; evident at very short times
Procedure: In both drought and dehydration conditions, plants respond by increasing the endogenous levels of ABA, which involves the activation of a signaling cascade having as a result a series of changes at the transcriptomic level. To study the possible effect that ABA may have in transcriptional OCP3 regulation in wt plants, the relative levels of the mRNA corresponding to the OCP3 gene is measured by quantitative RT-PCR (q-RT-PCR) at different times after applying ABA, as well as after subjecting the plants to dehydration stress. The ABI1 gene was used as a control in the experiments, the expression of which is known to be induced in response to both ABA and dehydration. As can be observed in FIG. 4, both as a result of applying 150 μM ABA and after imposing a water stress to the seedlings, a sharp drop of the accumulation levels of the transcript corresponding to the OCP3 gene is observed. Said repression in the expression of the OCP3 gene as a result of the treatment with ABA or of dehydration, already becomes evident at very short times. […]
FIG. 4. Relative expression levels of OCP3 and ABI1 in response to exogenous 150 μM ABA application (A) and dehydration (B) measured by real-time PCR. […]
The samples were analyzed in triplicate and the real-time PCR reactions were performed using Sybr Green PCR Master Mix (Applied Biosystems) in an ABI PRISM 7000 sequence detector. […]

ocp3 plants = assay: Effect of exogenous ABA on development of seedlings in MS-Agar plates; conditions: 0.8 μM ABA in MS-Agar; ocp3 mutant vs wt (Col-0); 17 days after seeding
Procedure: To study any possible effect of exogenous ABA application in the development of ocp3 plants, seeds of said mutant were seeded in MS-Agar plates, as well as in MS-Agar plates supplemented with an ABA concentration of 0.8 μM, and always using the wt wild type genotype (Col-0) as control plants in these experiments. […] Based on this it could therefore be deduced that the loss of function which can be attributed to the ocp3 mutation yields a hypersusceptibility to the ABA hormone and therefore the normal function of the OCP3 gene would be compatible with that of regulating any repression aspect of the ABA hormone transduction pathway, either in the sense of its synthesis or in that of its correct perception.
FIG. 2. Effect of ABA in the development of ocp3 plants compared with wt (Col-0) plants. The seeds were sterilized, stratified at 4° C. for 4 days and seeded in plates with MS-Agar medium and MS-Agar supplemented with 0.8 μM ABA. The photographs were taken 17 days after the seeding.
The plants were grown in Jiffy-7 compacted substrate (Clause-Tezier Iberica, Valencia, Spain) at 23° C. with a photoperiod of 10 hours of light and 14 of darkness. For the in vitro culture, the seeds were sterilized by adding 70% ethanol for 2 minutes and commercial 30% lye for 7 minutes. Subsequently, 5-7 washes with sterile water were performed and they were stratified at 4° C. for 4 days. […]

[3] = ABA application, abi1-1 and ocp3 abi1-1 double mutant, compared with wt or ocp3

CC1=CC(=O)CC(C)(C)[C@@]1(O)/C=C/C(C)=C\C(=O)O [ABA, abscisic acid]
induction and accumulation levels of rd29A, rd29B, rd22 transcripts, wt (Col-0) vs ocp3 ([1]; 150 μM ABA, liquid medium, 0, 1 h, 3 h, 6 h): no observable differences
induction of the expression of the rd29A gene [1, 3]: greatly reduced
induction of the expression of the rd29B and rd22 genes [1, 3]: virtually annulled
closure of the stomata in ocp3 plants ([2]; 30 minutes after applying, ocp3 plants): accelerated closure
closure of the stomata in wt control ([2]; 30 minutes after applying, wt (Col-0)): has still not started the process for closing its stomata
state of the stomata of ocp3 and wt plants ([2]; 2 hours after applying, ocp3 and wt plants): completely closed
accumulation levels of the OCP3 transcript (OCP3 gene): sharp drop
development of the ocp3 mutant in the presence of ABA (ocp3 plants): arrested in the first stages of germination
